Assay results: a melting point compilation (Tetko et al.; mined from patent text by program, amines drawn as free bases though some values may be those of a salt)

Row | SMILES | melting point [°C]
1 | CC(C)Cn1c(CCl)c(-c2ccccc2)c2cc(Br)ccc2c1=O | 145 to 146
2 | Nc1c(Cl)cc(C(=O)C=Cc2ccncc2)c2c1OCCO2 | 209 to 211
3 | CC1(C)C(=O)N(c2ccc([N+](=O)[O-])c(C(F)(F)F)c2)C(=O)N1CCCCN1C(=O)N(c2ccc([N+](=O)[O-])c(C(F)(F)F)c2)C(=O)C1(C)C | 211 to 212
4 | C=C[C@@H]1CCC(=O)N1C(=O)[C@@H](C)Sc1cc(C(C)(C)C)c(O)c(C(C)(C)C)c1 | 105 to 106
5 | Cc1c(NC(=O)c2ccc(-c3ccc(F)cc3)cc2)ccc2cc(CN3CCCC3CC(C)C)cnc12 (stereo unspecified) | 193 to 196
6 | CCC(=O)N1CCC(CC(=O)N2CCC([C@H]3c4ncc(Br)cc4CCc4cc(Cl)cc(Br)c43)CC2)CC1 | 124
7 | NC(=O)NCCC(F)=C(F)F | 86 to 88
8 | O=Cc1cc(-c2cccc(Cl)c2)c2cc(C(c3ccc(Cl)cc3)c3cccnc3)ccc2n1 (stereo unspecified) | 168
9 | Cc1ccc2sc(-c3ccccc3)c(N(C)C)c2c1 | 89 to 92
10 | CCCCCCCCCCCCCCCCCCNC(=O)OCC(CNS(=O)(=O)CCCI)NC(=O)OC (stereo unspecified) | 97
11 | O=[N+]([O-])c1ccc2c(c1)CCN(Cc1ccccc1)C2 | 76 to 78
12 | CSc1ncc(C=O)c(N)n1 | 184 to 186
13 | CC1CCN(c2c(-c3c(F)cc(F)cc3F)c(Cl)nc3nc(S(C)(=O)=O)nn23)CC1 | 206
14 | CC(C)(C)c1ccc(/C=C/C(=O)Nc2ccc3c(c2)CCCC3)cc1 | 198 to 199
15 | CCCCc1nn(-c2ccccc2Cl)c(=O)n1Cc1ccc(-c2ccccc2S(=O)(=O)NC(=O)c2ccc(F)cc2)cc1 | 118 to 120
16 | CN1CCN(CCCNc2ccc(Cl)cc2N)CC1 | 88 to 90
17 | N#CC1CN1C(=O)c1ccc(Cl)cc1Cl (stereo unspecified) | 95 to 97
18 | Cc1nccc(-c2ccccc2)c1CC[C@H]1C[C@H](O)CC(=O)O1 (relative stereo) | 107 to 108
19 | O=C1N(CCO)c2ccccc2C(c2ccccc2)N1C1CCN(Cc2cccc(CO)c2)CC1 (stereo unspecified) | 185 to 187
20 | OC1(CNc2ccnc3cc(Cl)ccc23)CCCCC1 | 205 to 207
21 | O=C(Nc1ccc(Oc2ccnc(NC3CCC3)n2)c2ccccc12)c1cc(F)cc(N2CCCCC2)c1 | 112 to 114
22 | CN(C)C(=O)Nc1cc(C(C)(C)C)[nH]n1 | 220 to 222
23 | N=C(NC(=O)OCc1ccccc1)N(C(=O)OCc1ccccc1)C1CCC(CCN2CCN(c3ccccc3)CC2)CC1 (stereo unspecified) | 136 to 137
24 | c1ccc2c(c1)c1ccccc1n2-c1ccc(-n2ccnc2-c2nccn2-c2ccc(-n3c4ccccc4c4ccccc43)cc2)cc1 | 270 to 274
25 | Oc1ccc(-c2ccc(C(F)(F)F)cc2)cn1 | 178 to 182

Row | SMILES | melting point [°C]
26 | O=[N+]([O-])c1oc2ccc(CBr)cc2c1-c1ccccc1 | 171 to 180
27 | O=c1[nH]c2cc(C(F)(F)F)cc3c2n(c1=O)C(P(=O)(O)O)CC3 (stereo unspecified) | 262
28 | Cc1ccc(-c2ccccc2S(N)(=O)=O)cc1 | 122
29 | CC(C)Cn1c(C(C)O)nc2c(N)nc3ccccc3c21 (stereo unspecified) | 145 to 149
30 | O=c1[nH]c(S)ncc1OC1CCCCO1 (stereo unspecified) | > 300
31 | CC(C)N(C(=O)CN1C(=O)C(C)(CC(=O)Nc2ccccc2)C(=O)N(c2ccccc2)c2ccccc21)c1ccccc1 (stereo unspecified) | 228 to 229
32 | CS(=O)(=O)C(=C1CN(C(c2ccccc2)c2ccccc2)C1)c1cccc(Br)c1 | 200
33 | COC1(c2cc(F)cc(OCc3ccc4ccccc4c3)c2)CCOCC1 | 109 to 111
34 | O=Cc1c(Cl)nc2n(c1=O)CCS2 | 152 to 154
35 | C=C(Sc1ccc(Br)cc1)S(=O)(=O)c1cccc([N+](=O)[O-])c1 | 109 to 111
36 | CC1=N/C(=C\c2c[nH]c3ncc(Cl)cc23)C(=O)N1C | 295 to 300
37 | Cc1ccsc1-c1nc2cc([N+](=O)[O-])ccc2o1 | 174 to 176
38 | Cn1ncnc1COc1cc(N)c2cnn(-c3ccccc3)c2n1 | 164 to 166
39 | Cc1ccc(C2(O)c3ccccc3C(=O)c3ccccc32)cc1 | 203 to 209
40 | CCOc1ccc(C(=O)Nc2c(Cl)cncc2Cl)c2c3cc(Cl)ccc3n(Cc3ccccc3)c12 | 221 to 223
41 | CNn1cc(-c2ccccc2)c2ccccc21 | 60 to 62
42 | CN(C)C=NC(=Nc1ccccc1)N1CCOCC1 | 109 to 112
43 | CC(C)(C)OC(=O)N1CCC(O)(CS)CC1 | 54 to 55
44 | N#Cc1nn(-c2c(Cl)cccc2Cl)c(N)c1-c1ccco1 | 223
45 | O=C(N[C@H]1CC[C@H](CCN2CCC(c3cccc4c3CCO4)CC2)CC1)C1CC1 | 208
46 | CCOC(=O)c1sc(C)c2nc(OCC)n(Cc3ccc(-c4ccccc4C#N)cc3)c12 | 153 to 155
47 | FC(F)(F)c1ccc(Oc2ccc3nonc3c2)c(Cl)c1 | 65 to 66
48 | O=c1oc2ccccc2cc1S(=O)(=O)Cc1ccc(Cl)cc1Cl | 228 to 229
49 | Oc1ccc(CCC(CCc2ccc(O)cc2)(c2ccc(O)cc2)c2ccc(O)cc2)cc1 | 252

Second part, the molecule after the results:

Row | melting point [°C] | SMILES
50 | 53 to 54 | C=C(C)Cc1cc(C=O)cc(OC)c1O
51 | 200 to 202 | NC(=O)c1cc2cc(Cl)ccc2o1
52 | 208 to 209 | CCCc1ccnc(C(=O)c2[nH]c3ccc(Cl)cc3c2CC(=O)O)c1
53 | > 260 | N#Cc1ccc(-c2ccc(C(=O)O)cn2)cc1
54 | 49 to 50 | COC(=O)c1ccccc1Oc1ccccc1[N+](=O)[O-]
55 | 119 | CCCCN1C[C@@H](C(=O)O)N(C(=O)[C@H](C)CSC(=O)c2ccccc2)C1=O
56 | 141 to 148 | COC(=O)CC[C@H](NC(=O)c1cccc(CCC2CNc3nc(NC(=O)C(C)(C)C)nc(O)c3C2)c1)C(=O)OC (stereo partly specified)
57 | 153 to 155 | COc1ccc(C(C)=O)c(CC(=O)O)c1
58 | 81 to 84 | CCOC(=O)CCCCC(NS(=O)(=O)c1ccccc1)c1ccc2ccccc2c1 (stereo unspecified)
59 | 60 to 63 | COc1cc(CO)cnc1Cl
60 | 169 to 171 | COc1ccc(-c2n[nH]c(N=CN(C)C)c2C#N)cc1
61 | 157 | COc1ccc2c(C(=O)Nc3ccc(F)c(C(F)(F)F)c3)nsc2c1
62 | 252 to 262 | Cn1c(=O)nc(N)c2ccccc21
63 | 118 | Cc1c(NC(=O)c2ccc(OC[C@@H]3CCCO3)cc2F)ccc2c1cc(CNCC(C)(C)O)n2C
64 | 224 to 225 | Cn1nnnc1NC(=O)c1cccc2cccnc12
65 | 180 to 184 | CCCOc1c(OC)cc(C(=O)Cl)cc1[N+](=O)[O-]
66 | 107 to 108 | COC(=O)c1ccc(C(=O)CC(=O)c2ccccc2)cc1
67 | 183 | CC(C)(C)OC(=O)Nc1cc(OC(C)(C)C)c(C#Cc2ccc(F)cc2)cc1N
68 | 110 to 114 | CCCCc1oc2ccccc2c1C(=O)c1cc(Cl)c(O)c(Cl)c1
69 | 133 to 134 | CS(=O)CC(=NC1CCCCC1)c1ccccc1O (stereo unspecified)
70 | 215 to 216 | CCOC(=O)c1c(-c2ccccc2C)c2cc(Cl)ccc2[nH]c1=O
71 | 62 | CCCCOc1ccc(C=C2C(=O)C3(C)CCC2C3(C)C)cc1 (stereo unspecified)
72 | 136 | COC(=O)c1c(N)[nH]c2ccccc12
73 | 303 to 304 | O=C(O)c1ccc(-c2cccc([N+](=O)[O-])c2)[nH]c1=O
74 | 92 to 94 | CCOC(=O)Cc1cc(Cl)cc(C(=O)c2ccc(Br)cc2)c1N
75 | 142 to 146 | COc1cc(OC)cc(-c2ncoc2-c2ccc(N)cc2)c1

Row | melting point [°C] | SMILES
76 | 65 to 69 | Nn1cccc1C(=O)c1ccccc1
77 | 80 to 83 | CCOC(=O)C(=O)C(NC(=O)c1ccccc1)c1ccccc1 (stereo unspecified)
78 | 158 to 161 | CC(C)C[C@H](NC(=O)OC(C)(C)C)C(=O)N[C@@H](C(C)C)[C@@H](O)c1c(-c2ccccc2)c1=O
79 | 258 to 260 | COc1ccc(-c2c3c(cc4ccc(OC)c(OC)c24)C(=O)NC3)cc1
80 | 105 to 106 | CCN(CC)CCNC(=O)c1cc(Cl)c(N)cc1OCC(C)=O
81 | 198 to 200 | Cc1ccc(C)n1CC(=O)N=C(N)N
82 | 203 to 205 | CSc1cnc2sccc2c1O
83 | 166 to 170 | O=C(O)CCC(NC(=O)C=Cc1ccco1)C(=O)O (stereo unspecified)
84 | 85 | CCOC(=O)C(C)Oc1ccc(Oc2ccc3cc(Br)ccc3n2)cc1 (stereo unspecified)
85 | 167 to 169 | Cc1ccc(CCc2ccccc2Br)c(NC=O)c1
86 | 119 to 120 | CC(Cc1cc(C(=O)c2ccccc2)ccc1OC(=O)C(C)(C)C)C(=O)O (stereo unspecified)
87 | 126 to 128 | CCOC(=O)C(Cc1ccc(OC)c(OC)c1)NC(=O)c1ccc(OC(C)C)cc1 (stereo unspecified)
88 | 79.3 to 80.2 | COc1ccc(C=CC(=O)c2cccc(OC)c2OC)cc1F
89 | 121 | CS(=O)(=O)Nc1cc(F)cc(F)c1
90 | 158 to 160 | CCOC(=O)c1c(-c2ccc(F)cc2)c2ccncc2c(=O)n1C
91 | 128 to 132 | CNC(=S)C1(c2cccc([N+](=O)[O-])c2)CCCCC1=O (stereo unspecified)
92 | 113 to 116 | O=C(NCC1(O)CCCCCC1)c1cc(-c2ccccc2C(=O)O)ccc1Cl
93 | 168 to 171 | CCCc1c2nc(C(=O)OCC)ccc2cc2c(=O)cc(C(=O)OCC)oc12
94 | 130 to 131 | CCOC(=O)C(CNC(=O)CSC(=O)c1ccccc1)NC(=O)CSC(=O)c1ccccc1 (stereo unspecified)
95 | 109 to 111 | CCCCCc1ccc(C(=O)Cc2cccc(C(=O)O)c2)cc1
96 | 118 to 120 | CC(C)OC(=O)Cn1c(-c2ccc(Cl)cc2)nc2cccnc21
97 | 115 to 118 | COc1nc(Cl)cc2nccn12
98 | 69 to 71 | CCOC(=O)Cc1sc(Sc2cc(C(=O)OCC)nc(SC)n2)nc1C
99 | 213 to 216 | CCOC(=O)c1c[nH]c2cc(Cl)c(F)c(NCC=O)c2c1=O
100 | 76 to 78 | COc1cc(OC)nc(NC(=O)NS(=O)(=O)Nc2ccc(F)cc2C(=O)C2CC2)n1
101 | 154 to 155 | Cc1oc(-c2ccccc2)nc1COc1ccc(COc2cc(CCC(=O)O)n(-c3ccccc3)n2)cc1
